Experiment: Release by thiol addition and hydride reduction (TLC)
Assay type: physicochemical
Settings: water with a drop of acetic acid, 2 hours
Experimental: A portion of the amide was dissolved in water with a drop of acetic acid. This yellow solution was divided into two portions. One portion was treated with sodium dithionite, a reducing agent, and the other was treated with 2-mercaptoethanol. After 2 hours, the samples were diluted with water and extracted with ethyl acetate.

For `CN1CCN(C(=O)CC(C)(C)C2=CC(=O)c3ccccc3C2=O)CC1` [Example 8], the “Release by thiol addition, TLC result” value (2-mercaptoethanol) was “the amide had been consumed with a colorless, non-polar product (lactone) being formed” and the “Release by hydride reduction, TLC result” value (sodium dithionite) was “the amide had been consumed with a colorless, non-polar product (lactone) being formed”.

Reference: patent US20120171229A1, “SYNTHETIC NANOCARRIERS WITH REACTIVE GROUPS THAT RELEASE BIOLOGICALLY ACTIVE AGENTS” (Selecta Biosciences, Inc., priority 2010, published 2012)
